Results from US20080248094A1 (NATIONAL RESEARCH COUNCIL OF CANADA, priority 2001, published 2008).
Values joined by “and” are separate entries in the source; they are usually repeats but may differ in a detail not shown here. Equal values may be shown once.

Legend:
[1] = test system: IL-12 secretion from dendritic cells; assay type: cell-based, C57BL/6 mice
[2] = test system: bone marrow dendritic cells; assay type: cell-based, C57BL/6 mice
OVA = test system: OVA; design: species or system C57BL/6 mice; settings: mouse, in vivo

Q: With lipopolysaccharide [LPS] as the substance, how does the IL-12 [1] read?
A: Its IL-12 is 187.9 ng/mL and 182.7 ng/mL.

Q: What about the “MTT (Absorbance)” value [2] of the same substance?
A: The value was 0.564 Absorbance and 0.562 Absorbance.

Q: Which “anti OVA antibody titres” value (OVA) does the source give for “OVA, no adjuvant: 15 μg ovalbumin (OVA) with no adjuvant” here?
A: Its value is <42.
